Test results: US4913909A, “Complex of tea-leaf extract and active aluminum hydroxide” (Mitsui Norin Co., Ltd., priority 1986, dated 1990)

Assays:
[1] = tested on: indomethacin-induced ulcers (glandular stomach) of rats; assay: therapeutic effect against indomethacin ulcers of rats (method of Somogi et al.); format: in vivo, male rats of Wistar strain; settings: indomethacin 25 mg/kg, 100 mg/kg p.o., 7 hours
Protocol: The complexes prepared in Examples 1 and 2, referred to as ATM and AEGCg, respectively, hereinbelow, were tested for the therapeutic activity against gastric ulcers of rats such as pylorus-ligated or indomethacin-induced ulcers.
Separately, according to the method of Somogi, et al. disclosed in J. Pharm. Pharmac., volume 21, page 122 (1969), a group of light male rats of Wistar strain each having a body weight of about 200 g were used to test the therapeutic effect of the complexes against indomethacin ulcers. Each of the rats belonging to the test group was, after 24 hours of fasting, orally administered with ATM or AEGCg suspended in a 5% solution of gum arabic followed by oral administration of indomethacin in a dose of 25 mg/kg body weight after 30 minutes from the administration of the ATM or AEGCg. After 7 hours abstinence from food and water, the rat was killed and the stomach was excised and incised along the greater curvature to measure the length of the ulcers appearing on the glandular stomach. The overall length of the ulcers is given in Table 2 below as the ulcer index. The control group was treated in the same manner as above excepting ATM or AEGCg in the gum arabic solution.

acute oral toxicity = assay: acute oral toxicity; parameters: species or system male mice of ddY strain; settings: mouse, in vivo, male ddY mice, fasted overnight, read-out: 50% lethal dose (LD50)
Excerpt: Lastly, ATM and AEGCg were subjected to the test of acute toxicity by male mice of ddY strain each having a body weight of 20 to 25 g. After fasting overnight, the mice were orally administered with ATM or AEGCg with varied doses to determine the 50% lethal dose (LD50).

[2] = tested on: gastric juice / peptic activity in rats; assay: antipeptic activity or effect on secretion of gastric juice in pylorus-ligated rats (method of Shay et al.); format: in vivo, male rats of Wistar strain; settings: 200 mg/kg p.o., 6 hours
Protocol: Further, the complexes were subjected to the test for the antipeptic activity or the effect on the secretion of gastric juice in rats according to the method of Shay, et al. Thus, a group of eight male rats of Wistar strain each having a body weight of about 200 g were used as the test animals. After 24 hours of fasting, the stomach of each rat was ligated at the pyloric part under etherization. Immediately after the ligation, the rat was orally administered with ATM or AEGCg suspended in a 5% solution of gum arabic. After 6 hours of abstinence from food and water, the rat was again etherized to take out the stomach as ligated at the cardiac end. The gastric juice in the stomach was put to centrifugal separation to give a supernatant of which the volume, overall acidity and overall peptic activity were measured to give the results shown in Table 3.

[3] = tested on: pylorus-ligated ulcers (forestomach) of rats; assay: therapeutic activity against pylorus-ligated gastric ulcers of rats (method of Shay et al.); format: in vivo, male rats of Wistar strain; settings: 100 mg/kg p.o., 18 hours
Protocol: After fasting 48 hours each rat was put to etherization and the stomach was ligated at the pyloric part. Immediately after the ligation, the rat was orally administered with a suspension of the ATM or AEGCg in a 5% solution of gum arabic. The control group was fed only the solution of gum arabic without either ATM or AEGCg. After 18 hours of abstinence from food and water, the rat was killed and the stomach was excised and incised along the greater curvature to examine the condition of ulcer appearing on the forestomach.

In the case of `CN/C(=N/CCSCc1nc[nH]c1C)NC#N` [Cimetidine], the “Ulcer index (mm)” value ([1]; overall length of ulcers) is reported as 13.3 ± 2.8 mm and the “Suppression (%)” value ([1]; ulcer index vs control) is reported as 62.4%.
With `O=C(O[C@@H]1Cc2c(O)cc(O)cc2O[C@@H]1c1cc(O)c(O)c(O)c1)c1cc(O)c(O)c(O)c1` [EGCg, (-)-epigallocatechin gallate] the LD50 (acute oral toxicity) was 2500 mg/kg.
With Sucralfate the “Overall acidity (mEq/liter)” value [2] was 85.4 ± 3.8 mEq/liter, the “Peptic activity (mg tyrosine)” value [2] was 585.3 ± 68.0 mg tyrosine and the “Volume of gastric juice (ml/rat)” value [2] was 7.98 ± 0.39 ml/rat. The “Suppression (%)” value ([2]; peptic activity vs control) was 35.0%, the Ulcer index [3] was 2.86 ± 0.40 and the “Suppression (%)” value ([3]; ulcer index vs control) was 41.5%.
